Experiments:
[1] = molecular target: T1, 15-PGDH/HPGD (Homo sapiens, UniProt P15428); test: hPGDH inhibitor screening biochemical assay; details: 10 nM enzyme, 15 μM Prostaglandin E2, 0.25 mM NAD, fluorescence ex/em 340/485 nm
T1 construct: purchased R&D System 5660-DH
T1 sequence (P15428 1-266): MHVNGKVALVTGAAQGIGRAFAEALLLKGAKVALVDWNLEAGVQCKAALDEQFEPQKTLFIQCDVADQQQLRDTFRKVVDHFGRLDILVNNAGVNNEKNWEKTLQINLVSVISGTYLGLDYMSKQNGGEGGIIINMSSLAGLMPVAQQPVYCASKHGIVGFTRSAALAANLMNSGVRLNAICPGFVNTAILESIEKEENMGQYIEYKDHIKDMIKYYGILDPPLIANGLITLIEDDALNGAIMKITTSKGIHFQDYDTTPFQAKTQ
Method: A hydroxyprostaglandin dehydrogenase inhibition screening biochemical assay can be performed to assess the synthesized inhibitors provided herein. Provided herein is an exemplary biochemical assay for hPGDH inhibitor screening.
The in vitro biochemical assay can be performed in white, 384 plates in total 20 μl reaction volume consisting of 10 nM of 15-PGDH/HPGD (R&D System #5660-DH), 15 μM Prostaglandin E2 (Sigma, Cat #P5640-10 MG) and 0.25 mM B-Nicotinamide adenine dinucleotide sodium salt (Sigma, Cat #N0632-5G) made in reaction buffer (50 mM Tris-HCl, pH 7.5, 0.01% Tween 20) at 10-point dose response curve for test/tool compounds. Briefly, 5 μl (4×) of compounds solution and 5 μl (final concentration, 10 nM) of enzyme solution is added to white 384 well plates and incubated for 10 mins at 37° C. 5 μl (4×) of Prostaglandin E2 and 5 μl (4×) of β-Nicotinamide adenine dinucleotide sodium salt is added to the wells and incubated for 10 mins at room temperature. Fluorescence is recorded at ex/em=340 nm/485 nm.

[2] = system: A549; test: A549 EC50 (cell assay, method not described); type: cell-based

Row | SMILES | IC50 [1] [nM] | EC50 ([2]; Homo sapiens, A549, A549) [nM] | EC50 ([2]; A549) [nM]
1 | O=C(O)c1ccc(-n2ncc3cc([C@H](O)C4(OCC(F)F)CC4)cnc32)cc1 [Compound 72A] | < 100 | 100 to 1000 | 
2 | CC(C)OC[C@@H](O)c1cnc2c(cnn2-c2ccc(CCCC(=O)O)c(F)c2)c1 [Compound 77A] | < 100 | < 100 | 
3 | O=C(O)c1ccc(-n2ncc3cc([C@H](O)C4COC4)ccc32)cc1 [Compound 120A] | < 100 | 100 to 1000 | 
4 | CCOC(C)(C)C(O)c1cnc2c(cnn2-c2cccc(-c3nnc[nH]3)c2)c1 (single isomer, unassigned) [Compound 34B] | 100 to 1000 |  | ≥ 1000
5 | NC(=O)c1ccc(-n2ncc3cc([C@H](O)COC4CCC4)cnc32)cc1 [Compound 81A] | < 100 | < 100 | 
6 | CCCOC(C)(C)[C@H](O)c1cnc2c(cnn2-c2cccc(-c3nnc[nH]3)c2)c1 [Compound 57A] | ≥ 1000 | ≥ 1000 | 
7 | CC(C)C[C@H](O)[C@H](O)c1cnc2c(ccn2-c2cccc(-c3nnc[nH]3)c2)c1 [Compound 3C, (1R,2S)-4-methyl-1-[1-[3-(4H-1,2,4-triazol-3-yl)phenyl]pyrrolo[2,3-b]pyridin-5-yl]pentane-1,2-diol] | < 100 | 100 to 1000 | 
8 | CC(C)OCC(O)c1cnc2c(cnn2-c2cccc(-c3nnc[nH]3)c2)c1 (single isomer, unassigned) [Compound 18B] | < 100 | 100 to 1000 | 
9 | C[S+]([O-])c1cccc(-n2ncc3cc([C@@H](O)COC4CCC4)cnc32)c1 (some centres unmarked) [Compound 125A] | 100 to 1000 | 100 to 1000 | 
10 | CNC(=O)c1cccc(-n2ncc3cc([C@@H](O)COC4CCC4)cnc32)c1 [Compound 110A] | < 100 | < 100 | 
11 | O=C(O)c1ccc(-n2ccc3nc([C@@H](O)COC4CCC4)cnc32)cc1 [Compound 47A] | < 100 | ≥ 1000 | 
12 | CC(C)OC[C@@H](O)c1cnc2c(cnn2-c2ccc(CCCC(=O)O)cc2)c1 [Compound 66A] | < 100 | < 100 | 
13 | O[C@@H](c1cnc2c(cnn2-c2cccc(-c3nnc[nH]3)c2)c1)C1CCOCC1 [Compound 52B] | < 100 | < 100 | 
14 | O[C@@H](c1cnc2c(cnn2-c2cccc(-c3nnc[nH]3)c2)c1)C1(OCC(F)F)CC1 [Compound 73B] | ≥ 1000 | ≥ 1000 | 
15 | CCCC[C@H](O)c1cnc2c(ccn2-c2cc(Cl)cc(-c3nnc[nH]3)c2)c1 [Compound 17B] | < 100 | < 100 | 
16 | O=C(O)c1ccc(-n2ncc3cc([C@H](O)COCC4CC4)cnc32)cc1 [Compound 107B] | < 100 | ≥ 1000 | 
17 | CCOC1([C@H](O)c2cnc3c(cnn3-c3cccc(-c4nnc[nH]4)c3)c2)CC1 [Compound 63A] | ≥ 1000 | ≥ 1000 | 
18 | O[C@H](COC1CC1)c1cnc2c(ccn2-c2cccc(-c3nnc[nH]3)c2)n1 [Compound 38A] | < 100 | < 100 | 
19 | CC(C)C[C@@H](O)[C@@H](O)c1cnc2c(ccn2-c2cccc(-c3nnc[nH]3)c2)c1 [Compound 3D, (1S,2R)-4-methyl-1-[1-[3-(4H-1,2,4-triazol-3-yl)phenyl]pyrrolo[2,3-b]pyridin-5-yl]pentane-1,2-diol] | < 100 |  | < 100
20 | CC(C)C[C@H](O)C(O)c1cnc2c(ccn2-c2cccc(-c3nnc[nH]3)c2)c1 (stereo in doubt) [Compound 3B, (1S,2S)-4-methyl-1-[1-[3-(4H-1,2,4-triazol-3-yl)phenyl]pyrrolo[2,3-b]pyridin-5-yl]pentane-1,2-diol] | < 100 |  | < 100
21 | O[C@H](c1cnc2c(cnn2-c2cccc(-c3nnc[nH]3)c2)c1)C1CC2CC2C1 (some centres unmarked) [Compound 50B] | < 100 | < 100 | 
22 | CC(C)OC[C@H](O)c1cnc2c(cnn2-c2ccc(CCC(=O)O)cc2)c1 [Compound 69B] | 100 to 1000 | 100 to 1000 | 
23 | CN(C)C(=O)c1cccc(-n2ncc3cc([C@H](O)COC4CCC4)cnc32)c1 [Compound 111B] | ≥ 1000 | ≥ 1000 | 

Row | SMILES | IC50 [1] [nM] | EC50 ([2]; Homo sapiens, A549, A549) [nM] | EC50 ([2]; A549) [nM]
24 | CC(C)OCC(O)c1cnc2c(cnn2-c2cccc(-c3nnc[nH]3)c2)c1 (single isomer, unassigned) [Compound 18A] | < 100 |  | < 100
25 | CS(=O)(=O)c1ccc(-n2ncc3cc([C@@H](O)COC4CCC4)cnc32)cc1 [Compound 121A] | 100 to 1000 | 100 to 1000 | 
26 | CC(C)OC[C@@H](O)c1cnc2c(cnn2-c2ccc(C(=O)O)cc2)c1 [Compound 48B] | < 100 | < 100 | 
27 | Cc1nn(-c2ccc(C(=O)O)cc2)c2ncc([C@@H](O)COC3CCC3)cc12 [Compound 109A] | < 100 | ≥ 1000 | 
28 | CCC1(OC[C@@H](O)c2cnc3c(cnn3-c3ccc(C(=O)O)cc3)c2)CC1 [Compound 93B] | < 100 | < 100 | 
29 | Cc1cc(-n2ncc3cc([C@@H](O)COC4CCC4)cnc32)ccc1C(=O)O [Compound 95A] | < 100 | < 100 | 
30 | CC(C)(O)C[C@H](O)c1cnc2c(cnn2-c2cccc(-c3nnc[nH]3)c2)c1 [Compound 43B] | < 100 | < 100 | 
31 | CC(C)OC[C@H](O)c1cnc2c(ccn2-c2ccc(C(=O)O)cc2)n1 [Compound 49A] | < 100 | ≥ 1000 | 
32 | CCCOC(C)(C)[C@@H](O)c1cnc2c(cnn2-c2cccc(-c3nnc[nH]3)c2)c1 [Compound 57B] | < 100 | < 100 | 
33 | CC1(OC[C@H](O)c2cnc3c(cnn3-c3ccc(C(=O)O)cc3)c2)CC1 [Compound 92A] | < 100 | ≥ 1000 | 
34 | COC(C)(C)C[C@@H](O)c1cnc2c(ccn2-c2cccc(-c3nnc[nH]3)c2)c1 [Compound 54A] | < 100 | < 100 | 
35 | CC(C)OC[C@@H](O)c1cnc2c(ccn2-c2ccc(C(=O)O)cc2)n1 [Compound 49B] | < 100 | 100 to 1000 | 
36 | O=C(O)c1ccc(-n2ncc3cc(C(O)C4CC(F)(F)C4)cnc32)cc1 (single isomer, unassigned) [Compound 45A] | < 100 | 100 to 1000 | 
37 | Cc1cc(-n2ncc3cc([C@H](O)COC4CCC4)cnc32)ccc1C(=O)O [Compound 95B] | 100 to 1000 | ≥ 1000 | 
38 | CC(C)(C)OC[C@@H](O)c1cnc2c(ccn2-c2cccc(-c3nnc[nH]3)c2)c1 [Compound 31B] | < 100 | < 100 | 
39 | CC1(COC[C@@H](O)c2cnc3c(cnn3-c3ccc(C(=O)O)cc3)c2)CC1 [Compound 106B] | < 100 | ≥ 1000 | 
40 | O=C(O)c1ccc(-n2ncc3cc([C@@H](O)COC4(C(F)(F)F)CCC4)cnc32)cc1 [Compound 115A] | < 100 | 100 to 1000 | 
41 | CNC(=O)c1ccc(-n2ncc3cc([C@H](O)COC4CCC4)cnc32)cc1 [Compound 84A] | < 100 | < 100 | 
42 | CC(C)OCC[C@@H](O)c1cnc2c(cnn2-c2cccc(-c3nnc[nH]3)c2)c1 [Compound 44A] | < 100 | < 100 | 
43 | CCCC(F)(F)[C@H](O)c1cnc2c(ccn2-c2cccc(-c3nnc[nH]3)c2)c1 [Compound 4B] | < 100 | < 100 | 
44 | CCCC[C@@H](O)c1cnc2c(ccn2-c2cccc(-c3nnc[nH]3)c2)n1 [Compound 2B] | < 100 | 100 to 1000 | 
45 | COCCNC(=O)c1ccc(-n2ncc3cc([C@H](O)COC4CCC4)cnc32)cc1 [Compound 118B] | 100 to 1000 | 100 to 1000 | 
46 | CCOC[C@@H](O)c1cnc2c(cnn2-c2cccc(-c3nnc[nH]3)c2)c1 [Compound 23B] | < 100 | < 100 | 

From US20260234139A1, “PGDH INHIBITORS AND METHODS OF MAKING AND USING” (Epirium Bio Inc., priority 2023, published 2026)
